The subject of series [1] is human peripheral blood-derived monocytes differentiated into macrophages. Description: Viability of macrophages in vitro in the presence of acetylsalicylic acid (propidium iodide, flow cytometry). The conditions noted are these: 72 h incubation. In general terms: Flow cytometry measures light scatter and fluorescence of single cells or particles in a stream.
Experimental: Moreover, cell viability tests are carried out on macrophages for various concentrations of acetylsalicylic acid (FIG. 6).
This method of analysis comprises the use of human peripheral blood-derived monocytes placed in culture in RPMI medium, to which is added M-CSF at 10 ng/ml, for 24 hours in order to differentiate them into macrophages. Acetylsalicylic acid is added to the culture medium in a final concentration of 1000 μM or 5000 μM.
Cell mortality is analyzed, after 72 hours of incubation, by flow cytometry by measuring the cytoplasmic incorporation of propidium iodide.
The aim of such a cell viability test carried out in vitro is to verify the harmfulness of the dose administered to the cells found in the wound, and preferably in the present case to macrophages, which are considered to be a type of effector cell in the healing of the lesion being studied.
For a further series, the system named is diabetic mice (db/db). Description: Kinetics of wound closure in diabetic mice (db/db) treated topically with acetylsalicylic acid. In kind it is in vivo. The note with it: for wound closure (time to closure): from D3 post-lesion, NaCl control diabetic mice 26 days. An excerpt:
These animals are characterized by hyperglycemia, insulin resistance and hypertriglyceridemia, which makes these mice the first choice as models for diabetes of genetic origin. The mice of the “control” group for the db/db mice are heterozygous db/+mice.
The mouse is anesthetized by means of isoflurane (halogenated anesthetic gas). The dorsal part and the flanks of the mouse are shaved and disinfected and a circular excision of close to 1 cm^2 is made. The connective tissue at the interface of the muscle tissue is removed without damaging the muscle fascia. The skin is totally excised as far as the panniculus carnosus.
The wound thus created is protected by a device such as described in the patent applications filed by Laboratoires Urgo, FR 11 62295 and FR 11 62344, which enables both protection of the wound and observation and evaluation of the healing kinetics, and enables exudate to be collected.
The wound healing process is observed from 0 to 30 days post-lesion. Between 3 and 5 very high resolution standardized digital photographs are taken for each animal. The percentage wound closure is based on changes in surface area calculated for the same injury on the same mouse and for the indicated time points. Thus, the mean calculated for wound healing (as a percentage) over the 3 mice in a group is obtained independently and the statistics are calculated from 3 groups of 3 independent experiments.
As already described above, the mouse is anesthetized by means of isoflurane. The dorsal part and the flanks of the mouse are shaved and disinfected and a circular excision of close to 1 cm^2 is made. The connective tissue at the interface of the muscle tissue is removed without damaging the muscle fascia. The skin is totally excised as far as the panniculus carnosus.
In the meantime, the reference solution of acetylsalicylic acid is prepared at 5 mM. This solution will be used to prepare the solutions with concentrations of 100 μM, 200 μM, 300 μM, 1 mM, 2 mM, 2.9 mM, 4.8 mM and 5 mM.
Solutions with concentrations of 100 μM, 200 μM, 300 μM, 1 mM, 2 mM, 2.9 mM, 4.8 mM and 5 mM of acetylsalicylic acid are tested.
A volume of between 50 and 500 μl is taken off from each solution and placed in contact with the wound via a device such as described through the patent applications filed by Laboratoires Urgo, FR 11 62295 and FR 11 62344.
It is noteworthy that this placing of a predefined concentration of acetylsalicylic acid in contact with the site of healing is carried out starting from the third day post-lesion. Indeed, it is in this period that the delay in healing appears in the diabetic mice, compared to the “control” mice (FIGS. 1A and 1B). Moreover, in the context of treating diabetic patients, the treated wounds will already be formed and will be arrested in the inflammatory phase. No chronic wounds, and more particularly diabetic wounds, are treated as soon as they appear. Moreover, the inflammatory phase is an indispensable phase in healing, since it enables the damaged area to be cleaned and deterged by virtue of the infiltration of inflammatory cells such as polymorphonuclear neutrophils. It is therefore necessary to retain inflammation to initiate effective healing, and thus to not entirely block this phase. This is why treatment with acetylsalicylic acid is only proposed starting from D3 post-lesion.

Another series concerns diabetic mice (HFD). Description: Kinetics of cell infiltration into the wound (exudate) of diabetic mice (HFD) treated with acetylsalicylic acid. In kind it is in vivo. The conditions noted are these: 1000 μM solution, D7 post-lesion, versus control diabetic mice. From the text: FIG. 7: Kinetics of cell infiltration into the wound of “control” mice and diabetic mice (HFD) treated with acetylsalicylic acid.
HFD mice are murine models for induced diabetes, produced with C57BL/6 mice of 8 weeks of age. These mice follow a high calorie (high-fat) diet for 16 weeks. […] Unlike db/db mice, the diabetic state in these animals is not of genetic origin. The mice of the “control” group for the HFD mice are mice on a standard diet, also known by the abbreviation “NC”.
The cells from the exudate are recovered from D1 post-lesion until no more exudate is secreted by the wound. In order to determine the kinetics of polymorphonuclear neutrophil infiltration, the cells from the exudate from the lesion are characterized by flow cytometry by immunolabeling relating to the membrane receptors Ly6G, 7/4 (for the polymorphonuclear cells) and F4/80 (for the macrophages). A total of 10 000 events is analyzed for each sample. All the results are given in the form of percentage expression.
FIG. 7 describes the kinetics of cell infiltration carried out on “control” diabetic mice or on those to which has been applied a solution of 1000 μM of acetylsalicylic acid.

The values below come from US20150320772A1, “USE OF ACETYLSALICYLIC ACID TO PREVENT AND/OR TREAT DIABETIC WOUNDS” (LABORATOIRES URGO, priority 2012, published 2015).

SMILES strings stand for the structures.

As to `CC(=O)Oc1ccccc1C(=O)O` [acetylsalicylic acid], the cell toxicity entry in series [1] (1000 μM) was “no cell toxicity”. Moreover, the “reduction of cell viability” value in series [1] (5000 μM) was 20%. Moreover, the “effect on the healing kinetics compared with control diabetic mice” value is “No effect whatsoever” in the series on diabetic mice (db/db) (100 μM solution, topical) and “No effect whatsoever” in the series on diabetic mice (db/db) (5000 μM solution, topical). For the same molecule, the “wound closure (time to closure)” value in the series with diabetic mice (db/db) (300 μM solution, topical) was “around twenty”; with diabetic mice (db/db) (1000 μM solution, topical), “around twenty”. Also, the “resolution of inflammation compared to control diabetic mice” value with diabetic mice (db/db) (300 μM, 1000 μM and 2000 μM solutions, topical, early phase D3 to D7 post-lesion) is listed as “very clear acceleration of resolution of inflammation”. The “speed of wound closure (overall conclusion)” value in the series on diabetic mice (db/db) (concentration of between 100 μM and 4800 μM, administered from D3 post-lesion) was “increased speed of wound closure”. Further, the “number of cells infiltrating the site of the lesion” value in the series with diabetic mice (HFD) is recorded as “significant reduction”.
